These results are taken from US10206909B2, “3-(1H-pyrrolo[2,3-B]pyridin-2-yl)-1H-pyrazolo[4,3-B]pyridines and therapeutic uses thereof” (Samumed, LLC, priority 2015, dated 2019).

Bounds are passed on as bounds.

What all share (format): cell-based
In one test the test system is SW480 colon cancer cells. The test can be described thus: Cell viability assay (CellTiter-Blue). The conditions noted are these: Homo sapiens; for EC50: 96 h, SW480 cell viability, four days, CellTiter-Blue; for inhibition at 10 µM: given where EC50 >10 μM, SW480 viability, read-out: percent inhibition at 10 μM. An outline of the steps: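 SW480 cells (~2×10^3 per well) were exposed to compound for four days at 37 °C/5% CO2, using 8-point 1:3 dilutions from 10 μM to 0.0045 μM in duplicate. Viability was read by resazurin reduction (CellTiter-Blue, ~3 h, Ex 560/Em 590 nm). EC50 came from non-linear regression; above 10 μM, percent inhibition at 10 μM is given.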

Test [1] concerns primary human mesenchymal stem cells (hMSCs). The test can be described thus: Chondrogenesis induction in mesenchymal stem cells (nodule count). The conditions noted are these: 144 h, 6 days; for Emax: relative to TGF-β3 (10 ng/mL) positive control, read-out: Max. Activity as % TGF-β3 activity; for EC50: concentration required to induce 50% levels of chondrogenesis vs TGF-β3, read-out: Conc (nM) of 50% TGF-β3 activity. How it is done: Representative compounds were screened using primary human mesenchymal stem cells (hMSCs) to determine their ability to induce chondrogenesis (process by which cartilage is developed).
Human Mesenchymal Stem Cell Culture: Primary human mesenchymal stem cells (hMSCs) were purchased from Lonza (Walkersville, Md.) and expanded in Mesenchymal Stem Cell Growth Media (Lonza). Cells between passage 3 and 6 were used for the experiments.
Compound Screening: Each compound was dissolved in DMSO as a 10 mM stock and used to prepare compound source plates. Serial dilution (1:3, 6-point dose-response curves from 2700 nM to 10 nM) and compound transfer was performed using the ECHO 550 (Labcyte, Sunnyvale, Calif.) into 96-well clear bottom assay plates (Greiner Bio-One) with appropriate DMSO backfill for a final DMSO concentration of 0.03%. hMSCs were plated at 20,000 cells/well in 250 μL/well Incomplete Chondrogenic Induction Medium (Lonza; DMEM, dexamethasone, ascorbate, insulin-transferrin-selenium [ITS supplement], gentamycin-amphotericin [GA-1000], sodium pyruvate, proline and L-glutamine). TGF-β3 (10 ng/mL) was used as a positive control for differentiation while negative control wells were treated with 75 nL DMSO for normalization and calculating EC50 values. Cells were incubated at 37° C. and 5% CO2 for 6 days. To image chondrogenic nodules, the cells were fixed using 4% formaldehyde (Electron Microscopy Sciences), and stained with 2 μg/mL Rhodamine B (Sigma-Aldrich) and 20 μM Nile Red (Sigma-Aldrich) [Johnson K., et. al, A Stem Cell-Based Approach to Cartilage Repair, Science, (2012). 336(6082), 717-721]. The nodules imaged (4 images per well at 4× magnification) by excitation at 531 nm and emission at 625 nm and quantified using the CellInsight CX5 (Thermo Scientific). Number of nodules in each well was normalized to the average of 3 DMSO treated wells on the same plate using Excel (Microsoft Inc.). The normalized averages (fold change over DMSO) of 3 replicate wells for each compound concentration were calculated. Due to solubility limitations of some of the compounds, curve fitting was incomplete leading to inaccurate EC50 determinations.
Using TGF-β3 as a positive control, the concentration of representative compounds required to induce 50% levels of chondrogenesis is reported. In addition, the maximum activity of each compound and the respective dose that each compound reached maximum chondrogenesis activity is reported.

The subject of the next test is IL-6 (THP-1 cells). Nature of the test: IL-6 inhibition in LPS-stimulated THP-1 cells (HTRF). To be noted: Homo sapiens; for EC50: THP-1 cells, LPS 500 ng/mL, 22 hours, IL6 HTRF; for inhibition at 10 µM: given where EC50 >10 μM, THP-1, IL6, read-out: percent inhibition at 10 μM. An outline of the steps:
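THP-1 cells, pre-cultured 24 h in 1% FBS, were preincubated 2 h with compound over a 10-point 1:3 series from 10 μM (0.1% DMSO). They were then stimulated with 500 ng/mL LPS for 22 h at 37° C. IL-6 was read by HTRF 665/620 nm ratio, and EC50 was fitted by four-parameter regression against DMSO; above 10 μM, % inhibition at 10 μM is given.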

`Nc1cncc(-c2ccc3[nH]nc(-c4cc5c(-c6ccncc6)ccnc5[nH]4)c3n2)c1` [Compound 115, 5-(3-(4-(Pyridin-4-yl)-1H-pyrrolo[2,3-b]pyridin-2-yl)-1H-pyrazolo[4,3-b]pyridin-5-yl)pyridin-3-amine]: in the test with SW480 colon cancer cells, the EC50 is > 10000 nM and the inhibition at 10 µM is 17.5%. Also, in test [1], the Emax amounted to 27%. In the test on IL-6 (THP-1 cells), the EC50 is > 10000 nM and the inhibition at 10 µM is 22.2%.
As for `Cc1ccncc1-c1ccc2[nH]nc(-c3cc4c(-c5ccncc5)ccnc4[nH]3)c2n1` [Compound 117, 5-(4-Methylpyridin-3-yl)-3-(4-(pyridin-4-yl)-1H-pyrrolo[2,3-b]pyridin-2-yl)-1H-pyrazolo[4,3-b]pyridine], in the test on SW480 colon cancer cells, the EC50 is > 10000 nM and the inhibition at 10 µM was 3.4%. Besides, in test [1], the EC50 stood at 300 nM and the Emax came out at 56%. In the test on IL-6 (THP-1 cells), the EC50 is > 10000 nM and the inhibition at 10 µM worked out at 45.3%.
For the molecule `c1cc(-c2ccnc3[nH]c(-c4n[nH]c5ccc(-c6cncc(CN7CCCCC7)c6)nc45)cc23)ccn1` [Compound 127, 5-(5-(Piperidin-1-ylmethyl)pyridin-3-yl)-3-(4-(pyridin-4-yl)-1H-pyrrolo[2,3-b]pyridin-2-yl)-1H-pyrazolo[4,3-b]pyridine], in the test on SW480 colon cancer cells, the EC50 is > 10000 nM and the inhibition at 10 µM came out at 14.5%. In test [1], the EC50 came to 2700 nM and the Emax amounted to 55%. Moreover, in the test with IL-6 (THP-1 cells), the EC50 was > 10000 nM and the inhibition at 10 µM came to 30.2%.
For `c1cc(-c2ccnc3[nH]c(-c4n[nH]c5ccc(-c6cncc(CNCC7CCCC7)c6)nc45)cc23)ccn1` [Compound 137, 1-Cyclopentyl-N-((5-(3-(4-(pyridin-4-yl)-1H-pyrrolo[2,3-b]pyridin-2-yl)-1H-pyrazolo[4,3-b]pyridin-5-yl)pyridin-3-yl)methyl)methanamine], the EC50 with SW480 colon cancer cells turned out to be 3720 nM. In test [1], the EC50 was found to be 100 nM and the Emax worked out at 67%. In the test with IL-6 (THP-1 cells), the EC50 is > 10000 nM and the inhibition at 10 µM was 40.8%.
Regarding `Cc1ccncc1-c1ccc2[nH]nc(-c3cc4c(N5CCCCC5)ccnc4[nH]3)c2n1` [Compound 173, 5-(4-Methylpyridin-3-yl)-3-(4-(piperidin-1-yl)-1H-pyrrolo[2,3-b]pyridin-2-yl)-1H-pyrazolo[4,3-b]pyridine], the EC50 in the test with SW480 colon cancer cells was > 10000 nM; in test [1], 900 nM; in the test on IL-6 (THP-1 cells) it was 967 nM. Moreover, the inhibition at 10 µM in the test on SW480 colon cancer cells was 49.2%. Also, the Emax in test [1] came to 101%.
Turning to `CN(C)Cc1cncc(-c2ccc3[nH]nc(-c4cc5c(N6CCCCC6)ccnc5[nH]4)c3n2)c1` [Compound 181, N,N-Dimethyl-1-(5-(3-(4-(piperidin-1-yl)-1H-pyrrolo[2,3-b]pyridin-2-yl)-1H-pyrazolo[4,3-b]pyridin-5-yl)pyridin-3-yl)methanamine], in the test on SW480 colon cancer cells, the EC50 was > 10000 nM and the inhibition at 10 µM was 47.5%. Besides, in test [1], the EC50 worked out at 10 nM and the Emax is 82%. Besides, in the test with IL-6 (THP-1 cells), the EC50 was > 10000 nM and the inhibition at 10 µM stood at 29.2%.
Regarding `CCCCC(=O)Nc1cncc(-c2ccc3[nH]nc(-c4cc5c(N6CCCCC6)ccnc5[nH]4)c3n2)c1` [Compound 187, N-(5-(3-(4-(Piperidin-1-yl)-1H-pyrrolo[2,3-b]pyridin-2-yl)-1H-pyrazolo[4,3-b]pyridin-5-yl)pyridin-3-yl)pentanamide], the EC50 in the test with SW480 colon cancer cells came to 3530 nM; in test [1], 10 nM; with IL-6 (THP-1 cells) it was 340 nM. In test [1], the Emax stood at 92%.
As to `FC1(F)CCN(Cc2cncc(-c3ccc4[nH]nc(-c5cc6c(N7CCCCC7)ccnc6[nH]5)c4n3)c2)C1` [Compound 194, 5-(5-((3,3-Difluoropyrrolidin-1-yl)methyl)pyridin-3-yl)-3-(4-(piperidin-1-yl)-1H-pyrrolo[2,3-b]pyridin-2-yl)-1H-pyrazolo[4,3-b]pyridine], the EC50 was > 10000 nM with SW480 colon cancer cells and 6940 nM with IL-6 (THP-1 cells). Besides, in the test with SW480 colon cancer cells, the inhibition at 10 µM is 28.3%. Moreover, in test [1], the Emax was 38%.
On to `c1ncc(-c2ccc3[nH]nc(-c4cc5c(N6CCCCC6)ccnc5[nH]4)c3n2)cn1` [Compound 195, 3-(4-(Piperidin-1-yl)-1H-pyrrolo[2,3-b]pyridin-2-yl)-5-(pyrimidin-5-yl)-1H-pyrazolo[4,3-b]pyridine], for which the EC50 in the test on SW480 colon cancer cells is > 10000 nM; in test [1], 10 nM; in the test with IL-6 (THP-1 cells) it was > 10000 nM. For the same molecule, the inhibition at 10 µM in the test with SW480 colon cancer cells came out at 22.9%; with IL-6 (THP-1 cells), 26%. For the same molecule, the Emax in test [1] stood at 100%.
Consider `CC(C)CC(=O)Nc1cncc(-c2ccc3[nH]nc(-c4cc5c(N6CCN(C)CC6)ccnc5[nH]4)c3n2)c1` [Compound 226, 3-Methyl-N-(5-(3-(4-(4-methylpiperazin-1-yl)-1H-pyrrolo[2,3-b]pyridin-2-yl)-1H-pyrazolo[4,3-b]pyridin-5-yl)pyridin-3-yl)butanamide], for which the EC50 was determined as 1550 nM in the test with SW480 colon cancer cells and 3270 nM with IL-6 (THP-1 cells). Further, the Emax in test [1] stood at 49%.
For `CN1CCN(c2ccnc3[nH]c(-c4n[nH]c5ccc(-c6cncc(NC(=O)C(C)(C)C)c6)nc45)cc23)CC1` [Compound 232, N-(5-(3-(4-(4-Methylpiperazin-1-yl)-1H-pyrrolo[2,3-b]pyridin-2-yl)-1H-pyrazolo[4,3-b]pyridin-5-yl)pyridin-3-yl)pivalamide], the EC50 was 1440 nM in the test with SW480 colon cancer cells and 3430 nM with IL-6 (THP-1 cells). For the same molecule, the Emax in test [1] was 24%.
On to `CN1CCN(c2ccnc3[nH]c(-c4n[nH]c5ccc(-c6cncc(NC(=O)c7ccccc7)c6)nc45)cc23)CC1` [Compound 235, N-(5-(3-(4-(4-Methylpiperazin-1-yl)-1H-pyrrolo[2,3-b]pyridin-2-yl)-1H-pyrazolo[4,3-b]pyridin-5-yl)pyridin-3-yl)benzamide], for which the EC50 with SW480 colon cancer cells was 3270 nM; in test [1] it was 10 nM; in the test with IL-6 (THP-1 cells) it was > 10000 nM. Moreover, the Emax in test [1] turned out to be 62%. Moreover, the inhibition at 10 µM with IL-6 (THP-1 cells) came out at 48.1%.
`CN1CCN(c2ccnc3[nH]c(-c4n[nH]c5ccc(-c6cncc(NC(=O)CC(C)(C)C)c6)nc45)cc23)CC1` [Compound 240, 3,3-Dimethyl-N-(5-(3-(4-(4-methylpiperazin-1-yl)-1H-pyrrolo[2,3-b]pyridin-2-yl)-1H-pyrazolo[4,3-b]pyridin-5-yl)pyridin-3-yl)butanamide] had an EC50 in the test on SW480 colon cancer cells of 2000 nM. In addition, the Emax in test [1] was determined as 30%. In the test with IL-6 (THP-1 cells), the EC50 was > 10000 nM and the inhibition at 10 µM stood at 43.5%.
Take `c1cncc(-c2ccc3[nH]nc(-c4cc5cccnc5[nH]4)c3n2)c1` [Compound 256, 5-(Pyridin-3-yl)-3-(1H-pyrrolo[2,3-b]pyridin-2-yl)-1H-pyrazolo[4,3-b]pyridine]: in the test on SW480 colon cancer cells, the EC50 is > 10000 nM and the inhibition at 10 µM stood at 23.2%. Also, in test [1], the EC50 turned out to be 10 nM and the Emax is 66%. Besides, the EC50 with IL-6 (THP-1 cells) came to 2 nM.
The molecule `CCNCc1cncc(-c2ccc3[nH]nc(-c4cc5cccnc5[nH]4)c3n2)c1` [Compound 258, N-((5-(3-(1H-Pyrrolo[2,3-b]pyridin-2-yl)-1H-pyrazolo[4,3-b]pyridin-5-yl)pyridin-3-yl)methyl)ethanamine] showed an EC50 in the test on SW480 colon cancer cells of 2810 nM. Besides, in test [1], the EC50 amounted to 10 nM and the Emax is 80%. For the same molecule, in the test on IL-6 (THP-1 cells), the EC50 is > 10000 nM and the inhibition at 10 µM was found to be 4.6%.
